The text below walks through data of patent publication US4931462A, “Heterocyclic substituted alkylsulphonamides pharmaceutical compositions containing them, and arterial disease treatment therewith” (Boehringer Mannheim GmbH, priority 1987, dated 1990).

Assay [1] deals with thrombocyte aggregation (TX antagonistic effect). The experiment in a line: TX antagonistic effect: inhibition of U 46619-induced thrombocyte aggregation in platelet-rich plasma of healthy blood donors (Born and Cross). The note with it: Erythrocyte, 5 min; U 46619-induced aggregation, human platelet-rich plasma, citrate, followed over 5 minutes; read-out: Human Erythrocytes IC50. Format: cell-based. From the text: 1. TX Antagonistic Effect of Human Erythrocytes
The thrombocyte aggregation is investigated by the method of Born and Cross (J. Physiol. 168, 178 (1963) in platelet-rich plasma of healthy blood donors. To inhibit clotting, the blood is mixed with 3.2% citrate in a ratio by volume of 1:9.
To induce thrombocyte aggregation, U 46619 (Upjohn & Co., Kalamazoo, U.S.A.), which is a stable analog of the prostaglandin endoperoxide […], is used. U 46619 was characterized as a selective thromboxane mimetic (Coleman et al., Brit. J. Pharmacol. 68, 127 P., 1980).
The aggregation test is carried out in a 4-channel aggregometer (Profiler® of the Bio/Data Co., U.S.A.). The course of the aggregation is followed over a period of 5 minutes. At the end of the test, the degree of aggregation attained is printed out. These values, which are obtained in the presence of different concentrations of the substance to be tested, are used for the determination of the EC50 for the TX antagonistic effect. The effectiveness varies inversely with the EC50 value.

The test system of assay [2] is U 46619-induced pulmonary embolism. Nature of the assay: Preventing the U 46619-induced pulmonary embolism (survival rate of mouse). The assay is classed as in vivo, mouse (male NMRI). The note with it: lethal U 46619 (800-1000 μg/kg) into tail vein after 4 hours, survivors/animals used; for Survival Rate of Mouse 25 mg/kg, 4 h: 25 mg/kg by stomach tube in 1% methylcellulose; for Survival Rate of Mouse 1 mg/kg, 4 h: 1 mg/kg by stomach tube in 1% methylcellulose. As to the method:
2. Preventing the U 46619-Induced Pulmonary Embolism
Male NMRI mice, with a body weight of 25 g. are used. The test substance is suspended in 1% methylcellulose and administered to the experimental animals with the help of a stomach tube. The provocation test consists of injecting the lethal dose (800-1000 μg/kg) of the thromboxane mimetic (U 46619 of the Upjohn Co.) rapidly into the tail vein. The duration of the specific antagonistic effect is tested by pretreating the animals with 25 mg or 1 mg/kg of the different test substances and injecting U 46619 after 4 hours. The survival rate indicates how many of the animals used have survived the injection of the thromboxane mimetic.

One may read the IC50 as the point on the concentration scale where inhibition reaches its midpoint. In the case of `Cc1ccc(S(=O)(=O)NCCc2ccc3oc(C(=O)O)cc3c2)cc1` [12 b], the IC50 in assay [1] is 1600 nM. Also, the “Survival Rate of Mouse 25 mg/kg, 4 h” value in assay [2] is recorded as 4/5.

Take `O=C(O)c1cc2cc(CCNS(=O)(=O)c3ccc(Br)cc3)ccc2o1` [12 e]: the IC50 in assay [1] came to 2700 nM. Also, in assay [2], the “Survival Rate of Mouse 25 mg/kg, 4 h” value is reported as 5/5.

In the case of `Cc1c(C(=O)O)oc2ccc(CCNS(=O)(=O)c3ccc(Cl)cc3)cc12` [12 g], in assay [1], the IC50 was found to be 1700 nM. In assay [2], the “Survival Rate of Mouse 25 mg/kg, 4 h” value is 5/5.

For the compound `O=C(O)c1cc2cc(CCNS(=O)(=O)c3ccc(Cl)cc3)ccc2[nH]1` [12 l], in assay [1], the IC50 is 1400 nM. Also, the “Survival Rate of Mouse 1 mg/kg, 4 h” value in assay [2] is given as 2/5.

Take `O=C(O)COc1ccc(CCNS(=O)(=O)c2ccccc2)cc1` [Comparison Compound, 4-[2-(benzenesulfonylamino)-ethyl]-7-phenoxyacetic acid, reference compound]: the IC50 in assay [1] worked out at 1850 nM. The “Survival Rate of Mouse 25 mg/kg, 4 h” value in assay [2] is 2/2.

For `O=C(O)c1cc2cc(CCNS(=O)(=O)c3ccc(Cl)cc3)ccc2o1` [Example 11, 5-[2-(4-Chlorobenzenesulphonamido)-ethyl]-benzo[b]-furan-2-carboxylic acid], the IC50 in assay [1] is 750 nM. In addition, in assay [2], the “Survival Rate of Mouse 1 mg/kg, 4 h” value is 4/5 and the “Survival Rate of Mouse 25 mg/kg, 4 h” value was 10/10.

Consider `O=C(O)C1Cc2cc(CCNS(=O)(=O)c3ccccc3)ccc2O1` (stereo not drawn) [Example 13, 5-(2-Benzenesulphonamidoethyl)-2,3-dihydrobenzo[b]furan-2-carboxylic acid], for which the IC50 in assay [1] came out at 1200 nM. In addition, the “Survival Rate of Mouse 25 mg/kg, 4 h” value in assay [2] was 5/5.
